Experimental findings from ChEMBL document CHEMBL1143893, “Novel nitroheterocyclic hypoxic markers for solid tumor: synthesis and biological evaluation” (Bioorg Med Chem, 2008) are described below.

The data set is described as follows: Drug level in Chinese hamster V79 379A cells at 0.1 mM after 3.5 hrs by fluorescence microplate reader relative to control. The format is ADME, cell-based, Cricetulus griseus. The conditions noted are these: 100 µM.

As for `O=[N+]([O-])c1ccc2nc3c(nc2c1)-c1cccc2c([N+](=O)[O-])ccc-3c12`, the Fold change is 6.

In turn, `CN(C)CCNc1ccc2c3c(cccc13)-c1nc3cc([N+](=O)[O-])ccc3nc1-2` registered a Fold change of 11.

Take `CN1CCN(c2ccc3c4c(cccc24)-c2nc4cc([N+](=O)[O-])ccc4nc2-3)CC1`: the Fold change came to 9.
